Measurements published in patent publication US8748468B2, “Manufacture, compositions and uses of coagulation factor VIIa modulator” (Pharmacyclics, Inc., priority 2007, dated 2014).
“Also recorded” adds a separate entry of the source. Where two headings read alike, the source gives them in different places.

How the values were obtained:
B16F10 melanoma cells = test: Lung colonization by B16F10 melanoma cells in mice; assay type: in vivo; settings: 1.5 h before and 4.5 h and 24 h after tumor cell inoculation, compared to control vehicle
Description: In this experiment, the compound of Formula I was administered subcutaneously 1.5 h before tumor cell inoculation, and then 4.5 h and 24 h after tumor cell inoculation. In the absence of the compound of Formula I (i.e., the vehicle alone), a substantial number of colonies formed in the majority of the inoculated mice. […] As a result, in some embodiments, the compound of Formula I inhibit the metastasis of tumor cells.
The compound of Formula I (3×50 mg/kg; 3×100 mg/kg) and a control vehicle were administered subcutaneously 1.5 hours before tumor cell inoculation and then at 4.5 hours and 24 hours after tumor cell inoculation.

[1] = test system: Lewis lung carcinoma tumor; test: Lewis lung carcinoma tumor growth in C57BL mice; assay type: in vivo; settings: for tumor volume compared to the control: gel formulation SC, 6, 9, 13, and 15 days after start of dosing
Description: In this example, the compound of Formula I was administered subcutaneously starting 4 days after tumor cell implantation in the mice (the two different dosing schedules are described in FIG. 2). […] As a result, the compound of Formula I inhibits the growth of tumor cells.
In a follow-up tumor suppression study, the compound of Formula I reduced Lewis lung carcinoma tumor growth in C57BL mice by approximately 50% when given twice daily at subcutaneous doses 22.5, 45, and 90 mg/kg (FIG. 3).
The compound of Formula I was administered in a gel formulation subcutaneously starting 4 days after tumor cell implantation. Tumor volume in the control experiment continued to increase from about 100 mm^3 at 6 days to above 400 mm^3 after 13 days and above 500 mm^3 after 15 days after start of dosing.

[2] = test system: FVIIa-induced IL-8 response in MDA-MB-231 human breast cancer cells; test: FVIIa-induced IL-8 response in MDA-MB-231 human breast cancer cells; assay type: cell-based; settings: 1 μM added to the medium; MDA-MB-231 cells incubated with FVIIa
Description: Secretion of the chemokine IL-8 increased to over 3-fold of baseline.

[3] = Pharmacokinetics after intravenous and subcutaneous administration in cynomolgus monkeys; assay type: in vivo; settings: for AUC(0-t): read-out: AUC 0-48
Description: A study was performed in cynomolgus monkeys with the compound of Formula I to provide information on its pharmacokinetics following intravenous and subcutaneous administration and to determine its subcutaneous bioavailability. The test compound was administered intravenously in a solution (1.76 mg/mL) composition and subcutaneously in a gel composition (107 mg/mL).

[4] = Plasma concentrations in C57BL/6 mice (LC-MS/MS); assay type: in vivo; settings: for Drug plasma concentrations: all dose levels
Description: (§1) C57BL/6 mice were dosed with a compound of Formula I in a gel composition by subcutaneous injection twice daily for 2 days. Plasma concentrations of a compound of Formula I were measured by LC-MS/MS at select time points following doses 3 and 4. Following drug administration, plasma levels were elevated in a dose dependent manner reaching 15 ug/ml 3 hours after dose 3 at 45 mg/kg/dose. […] Maximal drug plasma levels reached greater than 30 ug/ml 2 hours following dose 4 at 45 mg/kg/dose and dropped to 13 ug/ml by 4 hours post dosing. […] Prothrombin (PT) times were measured at 0 (predose), 2, 4, and 18 hours after the 4th dose administration.

Prothrombin (PT) time = test: Prothrombin time changes in C57BL/6 mice; assay type: in vivo; settings: 2 hours following the 4th dose, 45 mg/kg/dose, gel SC twice daily
Description: as §1

[5] = Toxicology study, 28 or 29 days subcutaneous, cynomolgus monkeys; assay type: in vivo; settings: for NOAEL: sc
Description: Cynomolgus monkeys were administered a gel formulation of a compound of Formula I twice daily by subcutaneous injection for 28 or 29 consecutive days at a total daily dosage of 0 (vehicle), 3, 12, or 36 mg/kg/day (HED=0.96, 3.84, and 11.5 mg/kg/day, respectively).

[6] = Animal PK studies, subcutaneous bioavailability across species; assay type: in vivo; settings: rat, dog, monkey, baboon, plasma, sc; administered subcutaneously in a solution; rats, dogs, monkeys, and baboons
[7] = Animal PK studies, subcutaneous, rat; settings: in vivo, sc, subcutaneous administration, read-out: terminal half-life (t1/2) (converted)
[8] = Animal PK studies, subcutaneous, dog; assay type: in vivo; settings: plasma, sc
Description: In dogs, the time to reach maximum plasma concentrations (Tmax) following subcutaneous injection of a compound of Formula I was 0.5 hours.

[9] = Animal PK studies, subcutaneous, monkey; settings: in vivo, sc, subcutaneous administration, read-out: terminal half-life (t1/2)
[10] = Animal PK studies, subcutaneous, baboon; assay type: in vivo; settings: plasma, sc
[11] = cynomolgus monkey, plasma, sc, Subcutaneous Gel, 10.7 mg/kg, n = 3
[12] = cynomolgus monkey, plasma, Intravenous Solution, 1.76 mg/kg, n = 4
[13] = subcutaneous administration, read-out: terminal half-life (t1/2) (converted)

N=C(N)c1ccc2nc(-c3cc(CC(=O)N[C@@H](CC(=O)O)C(=O)O)cc(-c4cc(S(N)(=O)=O)ccc4O)c3O)[nH]c2c1 [compound of Formula I]
Bl6F10 colonies formed in the lung (B16F10 melanoma cells; 3×50 mg/kg SC, 50 mg/kg): substantially fewer colonies were formed
Bl6F10 colonies formed in the lung (B16F10 melanoma cells; 3×100 mg/kg SC, 100 mg/kg): substantially fewer colonies; also recorded: the number of colonies further dropped
reduction in tumor volume ([1]; SC starting 4 days after tumor cell implantation, depending on the dosing schedule, p<0.01): ≥ 50%
reduction of Lewis lung carcinoma tumor growth ([1]; follow-up study, twice daily subcutaneous doses 22.5, 45, and 90 mg/kg): approximately 50%
tumor volume compared to the control ([1]; 100 mg/kg bid x4d followed by 60 mg/kg bid, P<0.01): a reduction in the tumor volume
tumor volume compared to the control ([1]; 150 mg/kg bid x4d followed by 90 mg/kg bid, P≦0.01): a reduction in the tumor volume
FVIIa-induced IL-8 response [2]: completely abrogated
subcutaneous Cmax as percent of the Cmax observed following intravenous dose ([3]; 10.7 mg/kg subcutaneous vs 1.76 mg/kg intravenous): 74%
half-life ([3]; cynomolgus monkey, plasma, iv, 1.76 mg/kg, Intravenous Solution, 1.76 mg/kg, n = 4, read-out: t1/2 α (converted)): 0.162 h
half-life ([3]; cynomolgus monkey, plasma, iv, 1.76 mg/kg, Intravenous Solution, 1.76 mg/kg, n = 4, read-out: t1/2 β (converted)): 2.19 h
half-life ([3]; cynomolgus monkey, plasma, iv, 1.76 mg/kg, Intravenous Solution, 1.76 mg/kg, n = 4, read-out: t1/2 γ (converted)): 7.07 h
half-life ([3]; cynomolgus monkey, plasma, sc, 10.7 mg/kg, Subcutaneous Gel, 10.7 mg/kg, n = 3, read-out: Terminal t1/2 (converted)): 7.43 h
Cmax ([3]; cynomolgus monkey, plasma, sc, Subcutaneous Gel (107 mg/mL), 10.7 mg/kg, n = 3): 11600 ng/mL
AUC(0-inf) [3, 11]: 172 µg·h/mL
CL/F [3, 11]: 1.07 mL/min/kg
Tmax [3, 11]: 3.33 h
AUC(0-t) [3, 11]: 171 µg·h/mL
bioavailability ([3]; cynomolgus monkey, plasma, sc, Subcutaneous Gel, single 10.7 mg/kg dose, n = 3, estimated, read-out: Bioavailabilty (subcutaneous)): 138 ± 33%
Cmax [3, 12]: 15700 ng/mL
MRT [3, 12]: 5.15 h
clearance [3, 12]: 1.4 mL/min/kg
AUC(0-t) [3, 12]: 21.2 µg·h/mL
Vd ([3]; cynomolgus monkey, plasma, Intravenous Solution, 1.76 mg/kg, n = 4, read-out: Vss): 0.43 L/kg
Drug plasma concentrations ([4]; 6 hours after dose 3): had dropped significantly
Drug plasma concentrations ([4]; 18 hours following dose 4): at or near baseline
Drug plasma concentration ([4]; gel SC twice daily, 2 hours following dose 4 at 22.5 mg/kg/dose): 11000 ng/mL
Maximal drug plasma level ([4]; gel SC twice daily, 2 hours following dose 4 at 45 mg/kg/dose): greater than 30 ug/ml
plasma level ([4]; gel SC twice daily, 3 hours after dose 3 at 45 mg/kg/dose): 15000 ng/mL
Drug plasma concentration ([4]; gel SC twice daily, 4 hours following dose 4 at 22.5 mg/kg/dose): stayed elevated
drug plasma level ([4]; gel SC twice daily, 4 hours post dose 4 at 45 mg/kg/dose): 13000 ng/mL
maximal change in PT time (Prothrombin (PT) time): 1.8 times baseline
sternum-bone marrow and spleen findings ([5]; cynomolgus monkey, in vivo): shifts indicative of increased erythropoiesis
kidney medulla finding ([5]; cynomolgus monkey, in vivo, 36 mg/kg/day): minimal to mild widening of the interstitium along the medullary rays
NOAEL ([5]; cynomolgus monkey, in vivo): 3 mg/kg/day
NOAEL ([5]; cynomolgus monkey, in vivo, subcutaneous administration for 28 or 29 consecutive days, read-out: NOAEL as HED): 0.96 mg/kg/day
unscheduled euthanasia ([5]; one female, 36 mg/kg/day group, abnormally high aPTT prior to dosing): euthanized after 3 days of dosing due to severe external hemorrhage
bioavailability [6]: 95 to 124%
half-life [7]: 2.67 h
half-life [8, 13]: 5.68 h
Tmax ([8]; subcutaneous injection, dogs, read-out: time to reach maximum plasma concentrations (Tmax)): 0.5 h
half-life [9]: 5.4 to 8.14 h
half-life [10, 13]: 7.21 h
Tmax ([10]; subcutaneous injection, baboons, read-out: time to reach maximum plasma concentrations (Tmax)): 2.75 h
